Experimental data taken from patent publication US20160137982A1, “P38 MAPK INHIBITOR-CONTAINING MEDIUM AND METHOD FOR OSTEOGENIC DIFFERENTIATION” (TAMPEREEN YLIOPISTO, priority 2013, published 2016).

Columns and labels:
[1] = test system: human adipose stem cells (hASCs); assay: Quantitative alkaline phosphatase (ALP) activity of hASCs, normalized to DNA, as early osteogenic marker; format: cell-based
Experimental: (§1) The study was conducted in accordance with the ethics committee of the Pirkanmaa Hospital District, Tampere, Finland (R03058). ASCs were isolated from subcutaneous adipose tissue samples obtained with written informed consent from 4 female donors (age, 44±7 years) undergoing elective surgical procedures in the Department of Plastic Surgery, Tampere University Hospital, Tampere, Finland. Isolation of hASCs from adipose tissue samples was carried out by using a mechanical and enzymatic method. The adipose tissue was minced manually into small fragments and digested with collagenase NB 6 GMP Grade (SERVA Electrophoresis GmbH, Heidelberg, Germany) in a water bath at 37° C. under shaking conditions. The digested tissue was centrifuged and filtered in sequential steps through a 100-μm poresize filter to separate the ASCs from the surrounding tissue. Cells were expanded in T75 flasks and passaged after reaching 80% confluency. Expansion was done in DMEM/F-12 1:1 (Life Technologies, Gibco, Carlsbad, Calif., USA) supplemented with 1% l-analyl-l-glutamine (GlutaMAX I; Life Technologies, Gibco), 1% antibiotics (p/s; 100 U/ml penicillin, 0.1 mg/ml streptomycin; Lonza, BioWittaker, Verviers, Belgium) and 10% HS (PAA Laboratories). ASCs were detached by using TrypLE Select (LifeTechnologies, Gibco). Cell surface marker profile (FIG. 1) was analyzed using flow cytometry (FACSAria; BD Biosciences, Erembodegem, Belgium) as described in Patrikoski et al (2013).
The effect obtainable with the present medium and method was studied experimentally. The differentiation into osteogenic cells was analysed following alkaline phosphatase (ALP) as early osteogenic marker and mineralization as a marker for advanced osteogenic process. FIG. 2 illustrates protein expression of alkaline phosphatase (ALP) analysis in various media. Results have been normalized to the amount of DNA. BM denotes basal medium, SB a p38 MAP kinase inhibitor SB 202190 and OM an osteogenic medium. In FIG. 2A these differentiation media results (BM+SB and OM) were compared against BM as a control. In FIG. 2B and 2C results from two cell lines from different patients were analyzed in two time points (after 7 and 14 days) to show the independence on the source (patient-lines) of the present medium and inter-patient predictability in that sense. In these experiments, SB was used in a concentration of 2 μM.
In further experiments, the effect of a concentration gradient of two different p38 MAPK inhibitors, i.e. SB 202190 and JX401, on osteogenic differentiation of hASCs was analysed. First, the effect of SB202190 inhibitor in a concentration range of 2 to 10 μM on hASCs was studied in BM culture conditions. […] In this case, the analysis was performed both in BM and osteogenic medium (OM).
(§2) In the above experiments, the basal medium used was DMEM/F12+5% HSPaa serum. Said p38 MAP kinase inhibitor SB 202190 was from SigmaAldrich, while JX401 was from Calbiochem. Osteogenic medium representing the state of the art, was a base medium supplemented with L-ascorbic acid-2phosphate (AsAP), β-glycerolphosphate, and dexamethasone.

[2] = test system: human adipose stem cells (hASCs); assay: Quantitative Alizarin Red mineralization assay of hASCs; format: cell-based; conditions: for peak concentration (Alizarin Red mineralization): 2 or 5 μM tested
Experimental: as §1
FIG. 3 represents quantitated Alizarin Red mineralization analysis of ASCs in basal medium, osteogenic medium, with and without SB inhibitor (2 μM) in time point 21 days.
To analyze how p38MAPK inhibitors affect the progression of osteogenic differentiation, Alizarin Red mineralization assay was performed both in BM and OM conditions. In both culture conditions, SB202190 inhibitor peaked at the concentration of 2 μM, but in OM also 5 μM was functional (FIG. 4C).
as §2

Row | SMILES | ALP activity of hASCs ([1]; 2 μM in BM, days 7 and 14, patient cell line 15/12 (FIG. 4B)) | functional concentration peak (ALP activity) ([1]; in BM, 2/5/10 μM tested, days 7 and 14, patient cell line 15/12 (FIG. 4B)) [µM] | most effective concentration (ALP activity) ([1]; in OM, 2/5/10 μM tested, days 7 and 14, patient cell line 15/12 (FIG. 4B)) [µM] | ALP activity of hASCs ([1]; 2 μM in BM, day 14, patient cell line 1/13 (FIG. 4A)) | osteogenic differentiation (ALP) in basal medium compared with osteogenic medium ([1]; 2 μM inhibitor in BM vs OM) | detection of alkaline phosphatase marker / differentiation across patient cell lines ([1]; 2 μM inhibitor, days 7 and 14, different patient cell lines) | ALP activity of hASCs ([1]; 5 μM in BM, day 14, patient cell line 1/13 (FIG. 4A)) | ALP activity of hASCs ([1]; 10 μM in BM, day 14, patient cell line 1/13 (FIG. 4A)) | Alizarin Red mineralization with and without inhibitor ([2]; 2 μM, day 21, patient cell line 41/12 (FIG. 3)) | Alizarin Red mineralization ([2]; 5 μM in OM, day 14, patient cell line 11/13 (FIG. 4C)) | peak concentration (Alizarin Red mineralization) ([2]; in BM, day 14, patient cell line 11/13 (FIG. 4C)) [µM] | peak concentration (Alizarin Red mineralization) ([2]; in OM, day 14, patient cell line 11/13 (FIG. 4C)) [µM]
1 | COc1cc(SC)ccc1C(=O)N1CCC(Cc2ccccc2)CC1 [JX401, 1-[2-Methoxy-4-(methylthio)benzoyl]-4-benzylpiperidine] | effective as compared to the highest concentration | 5 | 2 |  |  |  |  |  |  |  |  | 
2 | Oc1ccc(-c2nc(-c3ccc(F)cc3)c(-c3ccncc3)[nH]2)cc1 [SB202190, 4-(4-Fluorophenyl)-2-(4-hydroxyphenyl)-5-(4-pyridyl)-1H-imidazole] |  |  |  | clearly enhanced | almost equal level as with use of osteogenic medium | detected in every patient cell line | clearly enhanced | diminished compared to the other two concentrations | enhancer of advanced processes of osteogenesis | functional | 2 | 2
